Experimental findings from patent US6541467B1, “Thrombin inhibitors having a lactam at P3” (Corvas International, Inc., priority 2000, dated 2003) are described below.

As a reminder, the Ki is a measure of affinity in units of concentration, obtained from inhibition or displacement. The low end stands for tighter binding, the high end for weaker binding. As usually defined, the IC50 is the concentration at which inhibition is half-maximal.

A value given as a limit tells only on which side of the number the result lay.

Common to all, as to assay type: biochemical
Assay [1] deals with T1, human α-thrombin (Homo sapiens, UniProt P00734).
T1 construct: Purified human α-thrombin; purchased Enzyme Research Laboratories, Inc
Description: Thrombin (fIIa) chromogenic enzyme assay. As to conditions: for IC50: 0 min. Here is the method:
For screening compounds using these assays, the compounds of the present invention are dissolved in buffer to give solutions containing concentrations such that assay concentrations range from 0 to 100 micromolar. In the assays for thrombin, plasmin, t-PA, aPC, chymotrypsin, and trypsin, a chromogenic synthetic substrate is added to a solution containing test compound and the enzyme of interest and the residual catalytic activity of that enzyme is determined spectrophometrically. The IC50 of a compound of the present invention is determined from the rate of substrate turnover caused by the specific enzyme being measured. IC50 is the concentration of test compound which gives 50% inhibition of the rate of substrate turnover. Likewise, the Ki of a compound of the present invention is determined from the rate of substrate turnover caused by the specific enzyme being measured at various […] concentrations. Example A provides exemplars of in vitro assays used to select the compounds of the present invention.
(§1) The ability of compounds of the present invention to act as a selective inhibitor of thrombin activity was assessed by determining the concentration of test-compound which inhibited the activity of this enzyme by 50%, (IC50), and comparing this value to that determined for all or some of the following related serine proteases: recombinant tissue plasminogen activator (rt-PA), plasmin, activated protein C, chymotrypsin, factor Xa and trypsin.
(§2) The buffer used for all assays was HBSA (10 mM HEPES, pH 7.5, 150 mM sodium chloride, 0.1% bovine serum albumin).
The assay for IC50 determinations was conducted by combining in appropriate wells of a Corning microtiter plate, 50 microliters of HBSA, 50 microliters of the test compound at a specified concentration (covering a broad concentration range) diluted in HBSA (or HBSA alone for V0 (uninhibited velocity) measurement), and 50 microliters of the enzyme diluted in HBSA. […] The initial velocity of chromogenic substrate hydrolysis was measured by the change in absorbance at 405 nm using a Thermo Max® Kinetic Microplate Reader over a 5 minute period in which less than 5% of the added substrate was utilized. The concentration of added inhibitor which caused a 50% decrease in the initial rate of hydrolysis was defined as the IC50 value.
Enzyme activity was determined using the chromogenic substrate, Pefachrome t-PA (CH3SO2-D-hexahydrotyrosine-glycyl-L-Arginine-p-nitroaniline, obtained from Pentapharm Ltd.). The substrate was reconstituted in deionized water prior to use. Purified human α-thrombin was obtained from Enzyme Research Laboratories, Inc. The buffer used for all assays was HBSA (10 mM HEPES, pH 7.5, 150 mM sodium chloride, 0.1% bovine serum albumin).
The initial velocity of Pefachrome t-PA hydrolysis was measured by the change in absorbance at 405 nm using a Thermo Max® Kinetic Microplate Reader over a 5 minute period in which less than 5% of the added substrate was utilized. The concentration of:added inhibitor which caused a 50% decrease in the initial rate of hydrolysis was defined as the IC50 value.

For assay [2], the target named is T2, Factor Xa (Homo sapiens, UniProt P00742).
T2 construct: purchased Enzyme Research Laboratories, Inc. (South Bend, Ind.)
T2 sequence (P00742 235-488 limits assumed): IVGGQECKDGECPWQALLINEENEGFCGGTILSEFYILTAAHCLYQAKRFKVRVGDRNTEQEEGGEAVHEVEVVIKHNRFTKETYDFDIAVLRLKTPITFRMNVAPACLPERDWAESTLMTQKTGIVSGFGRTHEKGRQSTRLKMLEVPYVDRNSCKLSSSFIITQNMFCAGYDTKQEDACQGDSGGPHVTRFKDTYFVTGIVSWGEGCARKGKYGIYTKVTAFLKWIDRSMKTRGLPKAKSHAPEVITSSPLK
T2 sequence (P00742 41-179 partner limits assumed): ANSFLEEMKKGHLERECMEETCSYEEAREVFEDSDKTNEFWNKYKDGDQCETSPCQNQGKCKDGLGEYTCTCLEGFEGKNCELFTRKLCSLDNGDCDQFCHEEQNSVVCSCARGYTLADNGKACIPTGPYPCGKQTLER
Description: Factor Xa chromogenic enzyme assay. As to conditions: read-out: fXa IC50. The method, then:
as §1, §2
(§3) The assay for IC50 determinations was conducted by combining in appropriate wells of a Corning microtiter plate, 50 microliters of HBSA, 50 microliters of the test compound at a specified concentration (covering a broad concentration range) diluted in HBSA (or HBSA alone for V0 (uninhibited velocity) measurement), and 50 microliters of the enzyme diluted in HBSA. Following a 30 minute incubation at ambient temperature, 50 microliters of the substrate at the concentrations specified below were added to the wells, yielding a final total volume of 200 microliters. The initial velocity of chromogenic substrate hydrolysis was measured by the change in absorbance at 405 nm using a Thermo Max® Kinetic Microplate Reader over a 5 minute period in which less than 5% of the added substrate was utilized. The concentration of added inhibitor which caused a 50% decrease in the initial rate of hydrolysis was defined as the IC50 value.
Factor Xa catalytic activity was determined using the chromogenic substrate S-2765 (N-benzyloxycarbonyl-D-arginine-L-glycine-L-arginine-p-nitroaniline), obtained from DiaPharma Group (Franklin, Ohio). All substrates were reconstituted in deionized water prior to use. […] Purified human Factor X was obtained from Enzyme Research Laboratories, Inc. (South Bend, Ind.) and Factor Xa (FXa) was activated and prepared from it as described [Bock, P. E., Craig, P. A., Olson, S. T., and Singh, P. Arch. Biochem. Biophys. 273:375-388 (1989)]. The enzyme was diluted into HBSA prior to assay in which the final concentration was 0.25 nM.

Assay [3] deals with T3, human plasmin (Homo sapiens, UniProt P00747).
T3 construct: Purified human plasmin; purchased Enzyme Research Laboratories, Inc
T3 sequence (P00747 581-810 limits assumed): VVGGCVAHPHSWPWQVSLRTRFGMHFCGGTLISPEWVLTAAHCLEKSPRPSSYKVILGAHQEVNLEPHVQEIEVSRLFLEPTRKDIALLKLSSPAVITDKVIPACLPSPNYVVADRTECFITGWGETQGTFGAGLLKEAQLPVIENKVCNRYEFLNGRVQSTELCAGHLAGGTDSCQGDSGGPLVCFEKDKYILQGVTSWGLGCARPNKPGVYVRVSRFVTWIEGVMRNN
T3 sequence (P00747 97-580 partner limits assumed): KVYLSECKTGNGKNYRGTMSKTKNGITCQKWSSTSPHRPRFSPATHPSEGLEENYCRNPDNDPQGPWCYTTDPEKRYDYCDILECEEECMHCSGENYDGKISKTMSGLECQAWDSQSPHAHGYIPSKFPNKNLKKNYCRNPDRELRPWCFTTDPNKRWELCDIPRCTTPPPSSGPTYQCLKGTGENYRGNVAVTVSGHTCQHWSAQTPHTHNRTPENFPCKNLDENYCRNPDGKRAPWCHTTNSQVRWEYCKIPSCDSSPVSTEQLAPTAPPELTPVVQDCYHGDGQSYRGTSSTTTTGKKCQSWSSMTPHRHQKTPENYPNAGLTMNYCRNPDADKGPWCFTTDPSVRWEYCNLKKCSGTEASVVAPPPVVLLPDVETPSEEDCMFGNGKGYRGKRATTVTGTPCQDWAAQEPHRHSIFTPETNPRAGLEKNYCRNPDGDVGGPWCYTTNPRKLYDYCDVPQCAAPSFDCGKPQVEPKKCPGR
Description: Plasmin chromogenic enzyme assay. Here is the method: as §1, §2, §3
Plasmin catalytic activity was determined using the chromogenic substrate, S-2366 [L-pyroglutamyl-L-prolyl-L-arginine-p-nitroaniline hydrochloride], which was obtained from DiaPharma group. The substrate was made up in deionized water followed by dilution in HBSA prior to the assay in which the final concentration was 300 micromolar (about 2:.5-times Km). Purified human plasmin was obtained from Enzyme Research Laboratories, Inc. The enzyme was diluted into HBSA prior to assay in which the final concentration was 1.0 nM.

Assay [4] deals with T4, bovine pancreatic trypsin (Bos taurus, UniProt P00760).
T4 sequence (P00760 24-246): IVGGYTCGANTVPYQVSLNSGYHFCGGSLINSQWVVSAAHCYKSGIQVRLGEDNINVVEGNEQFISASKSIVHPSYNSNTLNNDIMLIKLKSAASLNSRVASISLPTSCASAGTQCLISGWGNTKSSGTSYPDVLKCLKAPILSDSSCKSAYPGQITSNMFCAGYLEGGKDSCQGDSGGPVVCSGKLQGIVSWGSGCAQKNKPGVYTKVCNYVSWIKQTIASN
Description: Trypsin chromogenic enzyme assay. Here is the method: as §1, §2, §3
Trypsin catalytic activity was determined using the chromogenic substrate, S-2222 (benzoyl-L-isoleucine-L-glutamic acid-[gamma-methyl ester]-L-arginine-p-nitroanilide), which was obtained from DiaPharma Group. […] Purified (3×-crystallized; TRL3) bovine pancreatic trypsin was obtained from Worthington Biochemical Corp. The enzyme was reconstituted in deionized water and diluted into HBSA prior to assay in which the final concentration was 0.5 nM.

In assay [1], `N/C(=N\O)c1ccc(CNC(=O)CN2C(=O)[C@@H](NS(=O)(=O)c3ccc4c(c3)CCO4)CCc3ccccc32)cc1` [Example 54, 3-(S)-(2,3-Dihydrobenzo[b]furanyl-5-sulfonyl)amino-1-(4-hydroxyamidinylbenzylmethylenecarboxamido)-4,5-dihydrobenzo[f]azepin-2-one] yielded a Ki of 300 to 2500 nM. The IC50 in assay [1], in assay [2], in assay [3] and in assay [4] was ≥ 2500 nM in each case.

For the compound `N=C(N)c1ccc(CNC(=O)CN2C(=O)[C@@H](NS(=O)(=O)c3ccc4c(c3)CCO4)CCc3ccccc32)cc1` [Example 55, 3-(S)-(2,3-Dihydrobenzo[b]furanyl-5-sulfonyl)amino-1-(4-amidinylphenylmethylenecarboxamido)-4,5-dihydrobenzo[f]azepin-2-one], the Ki in assay [1] is ≤ 100 nM. Further, the IC50 in assay [1] was ≤ 100 nM; in assay [2], ≥ 2500 nM; in assay [3] it was ≥ 2500 nM; in assay [4] it was 300 to 2500 nM.

As to `N=C(N)N1CCC(CNC(=O)CN2C(=O)[C@@H](NS(=O)(=O)c3ccc4c(c3)CCO4)CCc3ccccc32)CC1` [Example 56, 3-(S)-(2,3-Dihydrobenzo[b]furanyl-5-sulfonyl)amino-1-(1-amidino-4-methylenecarboxamidomethylpiperidyl)-4,5-dihydrobenzo[f]azepin-2-one], the Ki in assay [1] was ≤ 100 nM. In addition, the IC50 is 300 to 2500 nM in assay [1], ≥ 2500 nM in assay [2], ≥ 2500 nM in assay [3] and ≥ 2500 nM in assay [4].

With `N/C(=N\O)c1ccc(CNC(=O)[C@@H]2Cc3cccc4c3N2C(=O)[C@@H](NS(=O)(=O)c2ccc3c(c2)CCO3)CC4)cc1` [Example 60, N-(2,3-Dihydrobenzo[b]furanyl-5-sulfonyl)-Haic-aminomethylphenyl-N-hydroxyamidine], the Ki in assay [1] is ≥ 2500 nM. In addition, the IC50 in assay [1], in assay [2], in assay [3] and in assay [4] was ≥ 2500 nM in each case.

Turning to `N=C(N)c1ccc(CNC(=O)[C@@H]2Cc3cccc4c3N2C(=O)[C@@H](NS(=O)(=O)c2ccc3c(c2)CCO3)CC4)cc1` [Example 61, N-(2,3-Dihydrobenzo[b]furanyl-5-sulfonyl)-Haic-aminomethylphenylamidine], the Ki in assay [1] is ≤ 100 nM. Further, the IC50 in assay [1] is ≤ 100 nM; in assay [2], 300 to 2500 nM; in assay [3], ≥ 2500 nM; in assay [4], ≤ 100 nM.

Compound `N[C@H]1CC[C@H](CNC(=O)CN2CCCC[C@H](NS(=O)(=O)Cc3ccccc3)C2=O)CC1` [Example 65] came in with a Ki in assay [1] of 100 to 300 nM. Also, the IC50 in assay [1] is 300 to 2500 nM; in assay [2], ≥ 2500 nM; in assay [3], ≥ 2500 nM; in assay [4], ≥ 2500 nM.

Take `Cc1nc(N)ccc1CNC(=O)CN1CCCC[C@H](NS(=O)(=O)Cc2ccccc2)C1=O` [Example 66]: the Ki in assay [1] is ≤ 100 nM. The IC50 in assay [1] is 300 to 2500 nM; in assay [2] it was ≥ 2500 nM; in assay [3], ≥ 2500 nM; in assay [4], ≥ 2500 nM.

With `N=C(N)c1ccc(CNC(=O)CN2CCCC[C@H](NS(=O)(=O)Cc3ccccc3)C2=O)cc1` [Example 67], the Ki in assay [1] is ≤ 100 nM. The IC50 was 100 to 300 nM in assay [1], 300 to 2500 nM in assay [2], ≥ 2500 nM in assay [3] and 300 to 2500 nM in assay [4].
